# Results: PubChem BioAssay (NCI)
#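 Exposure lasted 48 hours, with cells grown in 96-well plates and compounds tested at five concentrations. GI50 is the concentration that inhibits growth by half. At the TGI there is no net growth.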
# What was measured:
# Assay in all cases: NCI-60 cell line screen, 48 h
# 786-0 renal = system: 786-0 renal
# A498 renal = system: A498 renal
# A549 NSCLC = system: A549 NSCLC
# ACHN renal = system: ACHN renal
# BT-549 breast = system: BT-549 breast
# CAKI-1 renal = system: CAKI-1 renal
# CCRF-CEM leukemia = system: CCRF-CEM leukemia
# COLO 205 colon = system: COLO 205 colon
# DU-145 prostate = system: DU-145 prostate
# HCC-2998 colon = system: HCC-2998 colon
# HCT-116 colon = system: HCT-116 colon
# HCT-15 colon = system: HCT-15 colon
# HL-60(TB) leukemia = system: HL-60(TB) leukemia
# HOP-62 NSCLC = system: HOP-62 NSCLC
# HOP-92 NSCLC = system: HOP-92 NSCLC
# HS 578T breast = system: HS 578T breast
# HT29 colon = system: HT29 colon
# IGROV1 ovarian = system: IGROV1 ovarian
# K-562 leukemia = system: K-562 leukemia
# KM12 colon = system: KM12 colon
# LOX IMVI melanoma = system: LOX IMVI melanoma
# M14 melanoma = system: M14 melanoma
# MALME-3M melanoma = system: MALME-3M melanoma
# MCF7 breast = system: MCF7 breast
# MDA-MB-231 breast = system: MDA-MB-231 breast
# MDA-MB-435 = system: MDA-MB-435
# MOLT-4 leukemia = system: MOLT-4 leukemia
# NCI-H226 lung = system: NCI-H226 lung
# NCI-H23 lung = system: NCI-H23 lung
# NCI-H460 lung = system: NCI-H460 lung
# NCI-H522 lung = system: NCI-H522 lung
# NCI/ADR-RES ovarian = system: NCI/ADR-RES ovarian
# OVCAR-3 ovarian = system: OVCAR-3 ovarian
# OVCAR-4 ovarian = system: OVCAR-4 ovarian
# OVCAR-5 ovarian = system: OVCAR-5 ovarian
# OVCAR-8 ovarian = system: OVCAR-8 ovarian
# PC-3 prostate = system: PC-3 prostate
# RPMI-8226 leukemia = system: RPMI-8226 leukemia
# RXF 393 renal = system: RXF 393 renal
# SF-268 CNS = system: SF-268 CNS
# SF-295 CNS = system: SF-295 CNS
# SF-539 CNS = system: SF-539 CNS
# SK-MEL-2 melanoma = system: SK-MEL-2 melanoma
# SK-MEL-28 melanoma = system: SK-MEL-28 melanoma
# SK-MEL-5 melanoma = system: SK-MEL-5 melanoma
# SK-OV-3 ovarian = system: SK-OV-3 ovarian
# SN12C renal = system: SN12C renal
# SNB-19 CNS = system: SNB-19 CNS
# SNB-75 CNS = system: SNB-75 CNS
# SR leukemia = system: SR leukemia
# SW-620 colon = system: SW-620 colon
# T-47D breast = system: T-47D breast
# U251 CNS = system: U251 CNS
# UACC-257 melanoma = system: UACC-257 melanoma
# UACC-62 melanoma = system: UACC-62 melanoma
# UO-31 renal = system: UO-31 renal
smiles,measurement,setting,value
O=C1Nc2ccccc2/C1=C/C(=N/c1nnc(-c2ccc(Cl)cc2)s1)c1ccccc1,GI50,786-0 renal,1720 nM
same,TGI,786-0 renal,3.4 µM
same,GI50,A498 renal,9.03 µM
same,TGI,A498 renal,26.1 µM
same,GI50,A549 NSCLC,7.78 µM
same,TGI,A549 NSCLC,23.8 µM
same,GI50,ACHN renal,1410 nM
same,TGI,ACHN renal,2830 nM
same,GI50,BT-549 breast,1790 nM
same,TGI,BT-549 breast,3.66 µM
same,GI50,CAKI-1 renal,1430 nM
same,TGI,CAKI-1 renal,4.92 µM
same,GI50,CCRF-CEM leukemia,1160 nM
same,TGI,CCRF-CEM leukemia,4.28 µM
same,GI50,COLO 205 colon,1770 nM
same,TGI,COLO 205 colon,3.4 µM
same,GI50,DU-145 prostate,2520 nM
same,TGI,DU-145 prostate,6.9 µM
same,GI50,HCC-2998 colon,8.11 µM
same,TGI,HCC-2998 colon,20.9 µM
same,GI50,HCT-116 colon,1060 nM
same,TGI,HCT-116 colon,2380 nM
same,GI50,HCT-15 colon,1400 nM
same,TGI,HCT-15 colon,3.28 µM
same,GI50,HL-60(TB) leukemia,1780 nM
same,TGI,HL-60(TB) leukemia,5.54 µM
same,GI50,HOP-62 NSCLC,7.16 µM
same,TGI,HOP-62 NSCLC,21.5 µM
same,GI50,HOP-92 NSCLC,969 nM
same,TGI,HOP-92 NSCLC,3.03 µM
same,GI50,HS 578T breast,3.25 µM
same,TGI,HS 578T breast,16 µM
same,GI50,HT29 colon,1940 nM
same,TGI,HT29 colon,5.61 µM
same,GI50,IGROV1 ovarian,2100 nM
same,TGI,IGROV1 ovarian,5.59 µM
same,GI50,K-562 leukemia,1750 nM
same,TGI,K-562 leukemia,11.4 µM
same,GI50,KM12 colon,4.85 µM
same,TGI,KM12 colon,15.6 µM
same,GI50,LOX IMVI melanoma,1540 nM
same,TGI,LOX IMVI melanoma,3.13 µM
same,GI50,M14 melanoma,2370 nM
same,TGI,M14 melanoma,6.28 µM
same,GI50,MALME-3M melanoma,2070 nM
same,TGI,MALME-3M melanoma,6.18 µM
same,GI50,MCF7 breast,2360 nM
same,TGI,MCF7 breast,10.8 µM
same,GI50,MDA-MB-231 breast,2140 nM
same,TGI,MDA-MB-231 breast,6.21 µM
same,GI50,MDA-MB-435,2550 nM
same,TGI,MDA-MB-435,7.23 µM
same,GI50,MOLT-4 leukemia,2270 nM
same,TGI,MOLT-4 leukemia,6.01 µM
same,GI50,NCI-H226 lung,3.19 µM
same,TGI,NCI-H226 lung,13.4 µM
same,GI50,NCI-H23 lung,2960 nM
same,TGI,NCI-H23 lung,11.2 µM
same,GI50,NCI-H460 lung,5.95 µM
same,TGI,NCI-H460 lung,21.9 µM
same,GI50,NCI-H522 lung,518 nM
same,TGI,NCI-H522 lung,1210 nM
same,GI50,NCI/ADR-RES ovarian,3.31 µM
same,TGI,NCI/ADR-RES ovarian,12.2 µM
same,GI50,OVCAR-3 ovarian,1260 nM
same,TGI,OVCAR-3 ovarian,2660 nM
same,GI50,OVCAR-4 ovarian,2560 nM
same,TGI,OVCAR-4 ovarian,12.2 µM
same,GI50,OVCAR-5 ovarian,1810 nM
same,TGI,OVCAR-5 ovarian,4.86 µM
same,GI50,OVCAR-8 ovarian,2810 nM
same,TGI,OVCAR-8 ovarian,10.1 µM
same,GI50,PC-3 prostate,1930 nM
same,TGI,PC-3 prostate,5.88 µM
same,GI50,RPMI-8226 leukemia,2070 nM
same,TGI,RPMI-8226 leukemia,5.4 µM
same,GI50,RXF 393 renal,1500 nM
same,TGI,RXF 393 renal,3.07 µM
same,GI50,SF-268 CNS,4.25 µM
same,TGI,SF-268 CNS,16.3 µM
same,GI50,SF-295 CNS,11.6 µM
same,TGI,SF-295 CNS,25.6 µM
same,GI50,SF-539 CNS,1810 nM
same,TGI,SF-539 CNS,4.08 µM
same,GI50,SK-MEL-2 melanoma,3.21 µM
same,TGI,SK-MEL-2 melanoma,9.32 µM
same,GI50,SK-MEL-28 melanoma,2360 nM
same,TGI,SK-MEL-28 melanoma,5.59 µM
same,GI50,SK-MEL-5 melanoma,12.6 µM
same,TGI,SK-MEL-5 melanoma,26.9 µM
same,GI50,SK-OV-3 ovarian,5.86 µM
same,TGI,SK-OV-3 ovarian,17.4 µM
same,GI50,SN12C renal,2160 nM
same,TGI,SN12C renal,5.97 µM
same,GI50,SNB-19 CNS,12.6 µM
same,TGI,SNB-19 CNS,25.4 µM
same,GI50,SNB-75 CNS,2530 nM
same,TGI,SNB-75 CNS,13.7 µM
same,GI50,SR leukemia,964 nM
same,TGI,SR leukemia,6.05 µM
same,GI50,SW-620 colon,1210 nM
same,TGI,SW-620 colon,2820 nM
same,GI50,T-47D breast,2310 nM
same,TGI,T-47D breast,10.2 µM
same,GI50,U251 CNS,4.04 µM
same,TGI,U251 CNS,15.5 µM
same,GI50,UACC-257 melanoma,2820 nM
same,TGI,UACC-257 melanoma,8.64 µM
same,GI50,UACC-62 melanoma,1930 nM
same,TGI,UACC-62 melanoma,4.58 µM
same,GI50,UO-31 renal,1400 nM
same,TGI,UO-31 renal,3.48 µM
